In patent US9120839B2, “Ursolic acid derivative and method for preparing same” (Nexoligo Co., Ltd., priority 2012, dated 2015) one finds AUC(0-t), Cmax and oral absorptivity data, which are given here for two compounds.

Read-outs that look alike come from different tables or passages of the source.

Data set [1] in a line: Pharmacokinetic animal test on Sprague Dawley (SD) rat, ursolic acid concentration in blood plasma. The class given is in vivo. The following applies: male, intravenous administration, dose 0.5 (mg/kg per Table 1), SD rats. The method, then:
Pharmacokinetic Animal Test on Sprague Dawley (SD) Rat, Using Ursolic Acid and Ursolic Acid Derivatives of Examples
• Ursolic acid derivative of Examples (5-methyl-2-oxo-1,3-dioxole-4-yl)methyl 3β-hydroxyl-urs-12-en-28-oate was used.
The ursolic acid was single-intravenously administered on SD rats and the ursolic acid derivative of Example 2 was orally administered, then blood collection was performed each time, and concentration of the test substance in blood was analyzed. Accordingly, bioavailability of the ursolic acid and ursolic acid derivatives of Examples were measured and compared with each other.
i) Control substance (Intravenous Administration): Ursolic Acid (UA) (HPLC purity of 99.0% or more/area percentage)
ii) Test substance (Oral Administration) Ursolic acid derivative of Example 2 (HPLC purity of 99.4% or more/area percentage)
The control substance for intravenous administration was diluted with 0.9% saline which was sterilized and sealed to be prepared in 0.5 mg/mL. […]
(3) Calculation of Injection Amount: The injection amount was calculated to be 1.0 or 2.0 mL/kg, on the basis of the recently measured body weight before the administration. […]
Concentration of ursolic acid in the blood plasma of the rats was measured. […]

For data set [2] the following is noted: background statement on ursolic acid; cited from earlier work.
For data set [3] the following is noted: rats, from Paper 1; cited from earlier work.

As to `C[C@H]1[C@H](C)CC[C@]2(C(=O)O)CC[C@]3(C)C(=CC[C@@H]4[C@@]5(C)CC[C@H](O)C(C)(C)[C@@H]5CC[C@]43C)[C@H]12` [Ursolic Acid, 3β-hydroxy-urs-12-en-28-oic acid], in data set [1], the AUC(0-t) (as a rule, exposure summed from dosing to a finite time, without extrapolation to infinity) stood at 114 ng·h/mL and the Cmax – broadly, the maximum level reached in the sampled fluid or tissue – stood at 378 ng/mL. In addition, the oral absorptivity entry in data set [2] is listed as “less than 1%”.

As to `CC1(C)CC[C@]2(C(=O)O)CC[C@]3(C)C(=CC[C@@H]4[C@@]5(C)CC[C@H](O)C(C)(C)[C@@H]5CC[C@]43C)[C@@H]2C1` [oleanolic acid], the oral absorptivity entry in data set [3] is given as “about 0.7%”.
